“Also recorded” adds a separate entry of the source. Counter-ions that a name gives are not always drawn.
Experiments:
Type in all cases: cell-based
human alpha4beta2 nAChRs [1] = molecular target: T1, human alpha4beta2 nAChRs (Homo sapiens, UniProt P17787+P43681); assay: Positive allosteric modulation of agonist-evoked currents, two-electrode voltage clamp in Xenopus oocytes (Example 1)
T1 construct: expressed in transfected cells; host or cells: Xenopus laevis oocytes (cDNA injection)
Protocol: • Acetylcholine chloride • 100 mM stock solution in bi-distilled water 1.3 Test system • Apparatus: Automated Injection and Recording Apparatus, HiQScreen • Species of donor animals: Xenopus • Strain of animals: Laevis • Origin (supplier) of animals: HiQScreen Sàrl, Geneva • Body Weight of animals: 150 g to 300 g • Animal maintenance 3 to 5 per vivarium • Room temperature: 20-22° C. • Lighting times: Vivarium were exposed to daylight with additional artificial lighting (6 am-8 pm in summer; 8 am-7 pm in winter). • Food: Food pellets, ad libitum • Source of biological material • and isolation procedure: Abdominal incision to remove ovaries • Experimental conditions in Oocyte incubation: Barth solution containing in mM NaCl 88, • vitro: […] OR2 medium containing in mM: […] Two-electrode voltage clamp, using proprietary automated system equipped with a Geneclamp amplifier (Axon Instrument, Foster City, Calif., USA), or HiClamp (Multichannel Systems, Germany) Abbreviations: Ach, Acetylcholine; nAChR, Nicotinic acetylcholine receptor; SEM, Standard error of the mean; PAM, Positive allosteric modulator All experiments were carried out at human nAChRs expressed in Xenopus oocytes using the method of cDNA expression. Xenopus oocytes were prepared and injected using standard procedures. Briefly, ovaries were harvested from Xenopus Laevis females that have been deeply anesthetized by cooling at 4° C. and Tricaine methanesulfonate (MS-222 at a concentration of 150 mg/L) in sodium bicarbonate (300 mg/L). Once anesthetized the animal was decapitated and pithed following the rules of animal rights from the Geneva canton. […] All recordings were performed at 18° C. and cells superfused with OR2 medium containing in mM: […] Currents evoked by ACh or other agonists were recorded using an automated process equipped with standard two-electrode voltage-clamp configuration (TEVC). Data were captured and analyzed using a HiQScreen proprietary data acquisition and analysis software running under Matlab (Mathworks Inc.). […] Compounds were dissolved in OR2 as stock solution (1 mM) and the final dilution to the desired concentration was made on the day of the experiment. Injections of cDNAs encoding for the human alpha4beta2, were performed in at least 95 oocytes were performed using a proprietary automated injection device (Hogg et al., J. Neurosci. Methods, 2008) and receptor expression examined at least two days later. Oocytes were poked with two electrodes and their membrane potential maintained, unless indicated, at −80 mV throughout the experiment. A protocol to determine the allosteric modulation at the alpha4beta2 nAChRs in the oocytes expressing the receptor was developed. Oocytes expressing alpha4beta2 nAChRs were exposed to increasing concentrations of ACh while the response was evaluated. This was repeated with the addition of a fixed concentration of the allosteric modulator. The current evoked from the exposure to the agonist with the modulator was recorded and compared to currents evoked in the absence of the modulator. To assess the effects of positive allosteric modulators (Br-PBTC and NS-9283) a protocol of determination of the concentration activation curve in absence and presence of the PAM was designed. […] To assess the positive allosteric modulator effects of NS-9283 at the compound 1 hemi-galactarate dihydrate the same experimental protocol was conducted using 1 μM of the modulator. […] To further evaluate the PAM effects, the modulation was measured either as a first application and compared versus the subsequent agonist evoked response or, vice versa, by first exposing the cell to the agonist alone and then to the PAM and the agonist applied during a sustained PAM exposure. […] The same experiment was then conducted for compound 1 hemi-galactarate dihydrate as the agonist and Br-PBTC as the modulator or NS-9283 as the modulator.

human alpha4beta2 nAChRs [2] = molecular target: T1, human alpha4beta2 nAChRs; assay: Desensitization by sustained (1 hour) agonist exposure and recovery, without and with PAM, Xenopus oocytes (Example 1)
human nAChR alpha4beta2 = molecular target: T2, human nAChR alpha4beta2 (Homo sapiens, UniProt P17787+P43681); assay: Agonist activity, two-electrode voltage clamp in Xenopus oocytes (Examples 2 and 5); details: for agonist character: versus ACh response
T2 construct: expressed in transfected cells; host or cells: Xenopus laevis oocytes (cDNA injection)
Protocol: (§1) All experiments were carried out at human nAChRs expressed in Xenopus oocytes using the method of cDNA expression. Xenopus oocytes were prepared and injected using standard procedures.
(§2) Briefly, ovaries were harvested from Xenopus Laevis females that have been deeply anesthetized by cooling at 4° C. and Tricaine methanesulfonate (MS-222 at a concentration of 150 mg/L) in sodium bicarbonate (300 mg/L). Once anesthetized the animal was decapitated and pithed following the rules of animal rights from the Geneva canton. A small piece of ovary was isolated for immediate preparation while the remaining part was placed at 4° C. in a sterile Barth solution containing in mM NaCl 88, KCl 1, NaHCO32.4, HEPES 10, MgSO4.7H2O 0.82, Ca(NO3)2.4H2O 0.33, CaCl2.6H2O 0.41, at pH 7.4, and supplemented with 20 μg/ml of kanamycin, 100 unit/ml penicillin. All recordings were performed at 18° C. and cells superfused with OR2 medium containing in mM: NaCl 88, KCl 2.5, HEPES 5, CaCl2.2H2O 1.8, MgCl2.6H2O 1, pH 7.4.
(§3) Currents evoked by ACh or other agonists were recorded using an automated process equipped with standard two-electrode voltage-clamp configuration (TEVC). Data were captured and analyzed using a HiQScreen proprietary data acquisition and analysis software running under Matlab (Mathworks Inc.).
(§4) See Example 1. […] The test concentration of acetylcholine chloride was 1280 micromolar.
(§5) Injections of cDNAs encoding for the human alpha3beta4, alpha3alpha5beta4, alpha4beta2, and alpha7 were performed in at least 95 oocytes were performed using a proprietary automated injection and receptor expression examined at least two days later. Oocytes were poked with two electrodes and their membrane potential maintained, unless indicated, at −80 mV throughout the experiment.
(§6) A protocol to determine agonistic activity in the oocytes expressing the nAChRs was developed. The cells were exposed to a series of increasing concentrations of a compound agonist for 10 seconds each at two minute intervals. The current evoked from exposure to the agonist at each concentration was recorded. For oocytes expressing alpha7 nAChRs, exposure to the agonist was reduced to 5 seconds. This process was repeated for each agonist tested against each type of nAChR expressing cell.
(§7) To evaluate the agonistic properties of compound 1 hemi-galactarate dihydrate a protocol of brief exposures to a series of growing concentrations of compound 1 hemi-galactarate dihydrate was used.
(§8) Agonist Preparation: See Example 1. […] The test concentration of acetylcholine chloride was 1280 micromolar.
as §5, with “Experimental Procedures: Injections” for “Injections”, “alpha4beta2, alpha4alpha6beta2,” for “alpha4beta2,”, “oocytes” for “oocytes were performed”, “injection device. Cellular” for “injection and”, “expression was” for “expression”
as §6, with “developed. Oocytes expressing a nAChR subtype were exposed to a brief test pulse of acetylcholine (1280 micromolar) while the holding current and response was evaluated. Cells displaying robust currents were washed for 90 seconds.” for “developed.”, “were then” for “were”, “nAChR” for “compound”, “intervals. The nAChR agonist test concentrations were 0.1, 0.3, 1, 3, 10, 30, 100, 300 (micromolar).” for “intervals.”

[3] = molecular target: T3, human nAChR alpha3alpha5beta4 (Homo sapiens, UniProt P30532+P30926+P32297); assay: as above; details: for agonist character: versus ACh response, mono-citrate
T3 construct: expressed in transfected cells; host or cells: Xenopus laevis oocytes (cDNA injection)
Protocol: as §1, §2, §3, §4, §5, §6, §7, §8
as §5, with “Experimental Procedures: Injections” for “Injections”, “alpha4beta2, alpha4alpha6beta2,” for “alpha4beta2,”, “oocytes” for “oocytes were performed”, “injection device. Cellular” for “injection and”, “expression was” for “expression”
as §6, with “developed. Oocytes expressing a nAChR subtype were exposed to a brief test pulse of acetylcholine (1280 micromolar) while the holding current and response was evaluated. Cells displaying robust currents were washed for 90 seconds.” for “developed.”, “were then” for “were”, “nAChR” for “compound”, “intervals. The nAChR agonist test concentrations were 0.1, 0.3, 1, 3, 10, 30, 100, 300 (micromolar).” for “intervals.”

human nAChR alpha3beta4 = molecular target: T4, human nAChR alpha3beta4 (Homo sapiens, UniProt P30926+P32297); assay: as above; details: for agonist character: versus ACh response, mono-citrate
T4 construct: expressed in transfected cells; host or cells: Xenopus laevis oocytes (cDNA injection)
Protocol: as §1, §2, §3, §4, §5, §6, §7, §8
as §5, with “Experimental Procedures: Injections” for “Injections”, “alpha4beta2, alpha4alpha6beta2,” for “alpha4beta2,”, “oocytes” for “oocytes were performed”, “injection device. Cellular” for “injection and”, “expression was” for “expression”
as §6, with “developed. Oocytes expressing a nAChR subtype were exposed to a brief test pulse of acetylcholine (1280 micromolar) while the holding current and response was evaluated. Cells displaying robust currents were washed for 90 seconds.” for “developed.”, “were then” for “were”, “nAChR” for “compound”, “intervals. The nAChR agonist test concentrations were 0.1, 0.3, 1, 3, 10, 30, 100, 300 (micromolar).” for “intervals.”

human nAChR alpha7 = molecular target: T5, human nAChR alpha7 (Homo sapiens, UniProt P36544); assay: as above; details: for percent of the maximal ACh-evoked current: at 300 μM (300 micromolar) agonist; for percent of the maximal ACh-evoked current / agonist character: mono-citrate; for agonist character: versus ACh response
T5 construct: expressed in transfected cells; host or cells: Xenopus laevis oocytes (cDNA injection)
Protocol: as §1, §2, §3, §4, §5, §6, §7, §8
as §5, with “Experimental Procedures: Injections” for “Injections”, “alpha4beta2, alpha4alpha6beta2,” for “alpha4beta2,”, “oocytes” for “oocytes were performed”, “injection device. Cellular” for “injection and”, “expression was” for “expression”
as §6, with “developed. Oocytes expressing a nAChR subtype were exposed to a brief test pulse of acetylcholine (1280 micromolar) while the holding current and response was evaluated. Cells displaying robust currents were washed for 90 seconds.” for “developed.”, “were then” for “were”, “nAChR” for “compound”, “intervals. The nAChR agonist test concentrations were 0.1, 0.3, 1, 3, 10, 30, 100, 300 (micromolar).” for “intervals.”

[4] = molecular target: T6, human nAChR alpha4alpha6beta2 (Homo sapiens, UniProt P17787+P43681+Q15825); assay: Agonist activity, two-electrode voltage clamp in Xenopus oocytes (Example 5); details: for agonist character: versus ACh response, mono-citrate
T6 construct: expressed in transfected cells; host or cells: Xenopus laevis oocytes (cDNA injection)
Protocol: as §1, §2, §3, §8
as §5, with “Experimental Procedures: Injections” for “Injections”, “alpha4beta2, alpha4alpha6beta2,” for “alpha4beta2,”, “oocytes” for “oocytes were performed”, “injection device. Cellular” for “injection and”, “expression was” for “expression”
as §6, with “developed. Oocytes expressing a nAChR subtype were exposed to a brief test pulse of acetylcholine (1280 micromolar) while the holding current and response was evaluated. Cells displaying robust currents were washed for 90 seconds.” for “developed.”, “were then” for “were”, “nAChR” for “compound”, “intervals. The nAChR agonist test concentrations were 0.1, 0.3, 1, 3, 10, 30, 100, 300 (micromolar).” for “intervals.”

[5] = presence vs absence of 1 μM PAM

T5 sequence (P36544 23-502): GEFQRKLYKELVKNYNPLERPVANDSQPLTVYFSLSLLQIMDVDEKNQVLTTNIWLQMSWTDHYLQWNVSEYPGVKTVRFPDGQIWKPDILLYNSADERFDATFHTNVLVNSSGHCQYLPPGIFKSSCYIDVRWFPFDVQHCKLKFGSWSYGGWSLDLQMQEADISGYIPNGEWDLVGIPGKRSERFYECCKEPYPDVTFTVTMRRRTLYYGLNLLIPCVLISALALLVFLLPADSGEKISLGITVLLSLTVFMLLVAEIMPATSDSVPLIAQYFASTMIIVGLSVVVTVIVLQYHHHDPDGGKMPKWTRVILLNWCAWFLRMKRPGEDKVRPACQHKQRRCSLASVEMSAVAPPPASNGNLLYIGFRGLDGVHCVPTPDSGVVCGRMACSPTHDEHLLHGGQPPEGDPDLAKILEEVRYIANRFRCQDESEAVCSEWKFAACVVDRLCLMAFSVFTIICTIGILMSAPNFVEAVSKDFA
T4 sequence (P32297 32-505): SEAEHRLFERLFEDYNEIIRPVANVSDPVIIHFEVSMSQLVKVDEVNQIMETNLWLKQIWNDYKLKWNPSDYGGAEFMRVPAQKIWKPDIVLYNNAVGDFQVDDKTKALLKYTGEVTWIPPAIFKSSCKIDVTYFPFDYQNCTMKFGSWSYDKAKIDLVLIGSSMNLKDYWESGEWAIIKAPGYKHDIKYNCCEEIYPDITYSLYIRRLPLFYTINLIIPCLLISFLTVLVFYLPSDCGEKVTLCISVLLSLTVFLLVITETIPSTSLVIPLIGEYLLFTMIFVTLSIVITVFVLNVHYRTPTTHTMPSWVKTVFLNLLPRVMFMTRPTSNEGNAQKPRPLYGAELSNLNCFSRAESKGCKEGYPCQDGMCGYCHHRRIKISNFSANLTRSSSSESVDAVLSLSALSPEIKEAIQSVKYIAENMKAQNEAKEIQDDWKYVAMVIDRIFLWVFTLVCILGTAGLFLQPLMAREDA
T4 sequence (P30926 22-498): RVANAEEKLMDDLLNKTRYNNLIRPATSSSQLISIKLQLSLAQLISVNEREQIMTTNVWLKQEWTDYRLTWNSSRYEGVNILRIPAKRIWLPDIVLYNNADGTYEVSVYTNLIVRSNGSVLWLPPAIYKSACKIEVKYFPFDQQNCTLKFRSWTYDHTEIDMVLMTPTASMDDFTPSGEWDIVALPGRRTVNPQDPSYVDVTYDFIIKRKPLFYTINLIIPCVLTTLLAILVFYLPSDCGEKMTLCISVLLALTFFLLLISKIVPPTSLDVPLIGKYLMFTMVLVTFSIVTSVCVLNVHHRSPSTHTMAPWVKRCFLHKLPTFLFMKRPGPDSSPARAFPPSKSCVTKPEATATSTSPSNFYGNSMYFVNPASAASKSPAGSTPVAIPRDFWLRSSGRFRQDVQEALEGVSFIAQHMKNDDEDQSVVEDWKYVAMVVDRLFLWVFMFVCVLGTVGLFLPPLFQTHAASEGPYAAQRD
T3 sequence (P32297 32-505): as the sequence (P32297 32-505) above
T3 sequence (P30532 23-468): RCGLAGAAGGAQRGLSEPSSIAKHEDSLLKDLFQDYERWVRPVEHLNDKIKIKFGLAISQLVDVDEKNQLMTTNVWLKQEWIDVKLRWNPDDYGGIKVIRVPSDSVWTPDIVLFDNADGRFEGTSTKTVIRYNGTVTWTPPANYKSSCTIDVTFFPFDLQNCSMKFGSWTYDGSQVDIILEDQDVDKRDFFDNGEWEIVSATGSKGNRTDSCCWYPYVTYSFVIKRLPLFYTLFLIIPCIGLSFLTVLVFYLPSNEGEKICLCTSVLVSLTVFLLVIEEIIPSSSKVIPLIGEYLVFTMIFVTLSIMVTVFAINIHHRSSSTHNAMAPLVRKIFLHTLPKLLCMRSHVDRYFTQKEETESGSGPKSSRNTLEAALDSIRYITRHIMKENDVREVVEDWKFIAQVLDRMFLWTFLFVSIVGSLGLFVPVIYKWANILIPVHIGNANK
T3 sequence (P30926 22-498): as the sequence (P30926 22-498) above
T2 sequence (P43681 29-627 limits assumed): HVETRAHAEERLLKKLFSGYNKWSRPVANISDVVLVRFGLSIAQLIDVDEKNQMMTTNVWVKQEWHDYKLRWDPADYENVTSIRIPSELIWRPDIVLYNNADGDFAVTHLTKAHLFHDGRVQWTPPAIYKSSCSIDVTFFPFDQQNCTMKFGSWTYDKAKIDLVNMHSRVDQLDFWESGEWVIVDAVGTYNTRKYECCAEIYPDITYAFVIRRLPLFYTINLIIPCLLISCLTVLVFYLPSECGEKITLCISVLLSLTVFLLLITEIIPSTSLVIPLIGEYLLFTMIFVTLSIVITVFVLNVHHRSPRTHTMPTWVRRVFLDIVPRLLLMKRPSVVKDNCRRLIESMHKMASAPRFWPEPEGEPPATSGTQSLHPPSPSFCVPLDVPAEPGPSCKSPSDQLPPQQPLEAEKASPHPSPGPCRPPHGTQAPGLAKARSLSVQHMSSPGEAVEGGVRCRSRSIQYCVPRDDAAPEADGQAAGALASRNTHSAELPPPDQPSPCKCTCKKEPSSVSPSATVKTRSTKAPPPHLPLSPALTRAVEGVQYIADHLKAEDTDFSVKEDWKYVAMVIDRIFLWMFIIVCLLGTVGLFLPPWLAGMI
T2 sequence (P17787 26-502): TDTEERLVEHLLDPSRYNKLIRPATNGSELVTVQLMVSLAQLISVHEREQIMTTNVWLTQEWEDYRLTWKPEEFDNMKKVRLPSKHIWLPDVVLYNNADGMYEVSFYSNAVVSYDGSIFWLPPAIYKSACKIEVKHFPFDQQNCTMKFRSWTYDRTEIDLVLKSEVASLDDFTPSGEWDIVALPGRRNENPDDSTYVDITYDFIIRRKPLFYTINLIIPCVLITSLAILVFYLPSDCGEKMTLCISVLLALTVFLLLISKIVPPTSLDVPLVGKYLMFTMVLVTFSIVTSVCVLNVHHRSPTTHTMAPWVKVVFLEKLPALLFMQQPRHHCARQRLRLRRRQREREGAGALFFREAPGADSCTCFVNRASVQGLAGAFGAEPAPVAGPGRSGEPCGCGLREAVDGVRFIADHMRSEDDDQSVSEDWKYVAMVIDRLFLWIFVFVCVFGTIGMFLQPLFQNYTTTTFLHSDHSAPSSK
T6 sequence (P43681 29-627 limits assumed): as the sequence (P43681 29-627 limits assumed) above
T6 sequence (Q15825 26-494): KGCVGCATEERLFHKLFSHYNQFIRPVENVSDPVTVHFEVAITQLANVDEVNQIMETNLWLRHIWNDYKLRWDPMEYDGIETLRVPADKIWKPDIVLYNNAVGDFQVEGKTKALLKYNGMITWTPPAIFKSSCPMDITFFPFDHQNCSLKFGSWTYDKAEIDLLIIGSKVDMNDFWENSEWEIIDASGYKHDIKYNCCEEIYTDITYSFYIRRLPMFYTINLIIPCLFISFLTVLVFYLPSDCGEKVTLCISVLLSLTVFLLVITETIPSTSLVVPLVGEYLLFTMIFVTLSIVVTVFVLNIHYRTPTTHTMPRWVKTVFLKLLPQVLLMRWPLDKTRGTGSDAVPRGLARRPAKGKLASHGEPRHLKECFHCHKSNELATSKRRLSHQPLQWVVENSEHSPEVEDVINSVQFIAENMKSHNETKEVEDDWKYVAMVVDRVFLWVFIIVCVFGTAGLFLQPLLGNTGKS
T6 sequence (P17787 26-502): as the sequence (P17787 26-502) above
T1 sequence (P43681 29-627 limits assumed): as the sequence (P43681 29-627 limits assumed) above
T1 sequence (P17787 26-502): as the sequence (P17787 26-502) above

O=C(N[C@@H]1CCCNC1)c1cc2cccc(Br)c2s1 [Br-PBTC, (R)-7-bromo-N-(piperidin-3-yl)benzo[b]thiophene-2-carboxamide] was tested, and the “positive allosteric modulator activity in the presence of compound 1 hemi-galactarate dihydrate” value (human alpha4beta2 nAChRs [1]; 1 μM PAM) was “acts as a positive modulator; also recorded: potentiate the agonistic activity”, the “dependence of potentiation on the order of agonist and PAM application” value (human alpha4beta2 nAChRs [1]; agonist compound 1 hemi-galactarate dihydrate) was “independent on the exposure protocol” and the “maximal current evoked by compound 1 hemi-galactarate dihydrate” value (human alpha4beta2 nAChRs [1]; [5]) was “increase of the maximal evoked current; also recorded: increase of the amplitude of the current”. The “shift of the concentration activation curve to compound 1 hemi-galactarate dihydrate” value (human alpha4beta2 nAChRs [1]; [5]) was “significant shift to the left; also recorded: shifted to the left”, the “effect of PAM on recovery from varenicline tartrate desensitization” value (human alpha4beta2 nAChRs [2]; 300 μM varenicline tartrate 1 hour, 1 μM PAM, wash of 3 hours) was “almost complete recovery within 3 hours; also recorded: almost full recovery; also recorded: partially reversed” and the “effect of PAM on amplitude of the current evoked by varenicline tartrate” value (human alpha4beta2 nAChRs [2]; 300 μM varenicline tartrate, 1 μM PAM) was “largely enhanced”. For the same compound, the “effect of PAM on profile of compound 1 hemi-galactarate dihydrate desensitization and recovery” value (human alpha4beta2 nAChRs [2]; 1 mM agonist, co-application of 1 μM modulator) was “minimal effect”.

For C(=C\[C@H]1CCNC1)/c1cncnc1 [compound 1 citrate, (R)-5-((E)-2-pyrrolidin-3-ylvinyl)pyrimidine mono-citrate], the EC50 (human nAChR alpha4beta2; Example 5, read-out: EC50) was 13.5 ± 2.06 µM, the “effect on the subsequent ACh-evoked current” value (human nAChR alpha4beta2; after exposure to the agonist concentration series, mono-citrate) was “Significant inhibition” and the agonist character (human nAChR alpha4beta2; listed as Compound 1 citrate, mono-citrate) was “almost as a full agonist”. For the same compound, the agonist character (human nAChR alpha4beta2; mono-citrate) was “almost full agonist”, the EC50 ([3]; Example 5, read-out: EC50) was 83 ± 9.05 µM and the agonist character ([3]; listed as Compound 1 citrate) was “almost as a full agonist”. The agonist character [3] was “almost full agonist”, the EC50 (human nAChR alpha3beta4; read-out: EC50) was 34.9 ± 4.53 µM and the agonist character (human nAChR alpha3beta4; listed as Compound 1 citrate) was “almost as a full agonist”. The agonist character (human nAChR alpha3beta4) was “almost full agonist”, the “fraction of the maximal ACh-evoked current” value (human nAChR alpha7; 300 micromolar concentration) was 25% and the EC50 (human nAChR alpha7; Example 5, only an estimation) was 126 ± 28.5 µM. For the same compound, the “percent of the maximal ACh-evoked current” value (human nAChR alpha7; listed as Compound 1 citrate) was 25%, the “percent of the maximal ACh-evoked current” value (human nAChR alpha7) was 25% and the agonist character (human nAChR alpha7; listed as Compound 1 citrate) was “poor agonist”. For the same compound, the agonist character (human nAChR alpha7) was “weak partial agonist”, the EC50 [4] was 13.1 ± 3.68 µM and the agonist character ([4]; listed as Compound 1 citrate) was “almost as a full agonist”. The agonist character [4] was “almost full agonist”.
